Measured values reported in paper PMC9826610 (Journal of medicinal chemistry, 2022).
Values after ≈ are worked out from the molar mass of the structure shown. Read-outs that look alike come from different tables or passages of the source.

Experiments:
[1] = tested on: methicillin-resistant S. aureus (FPR3757); assay: MIC against methicillin-resistant S. aureus; format: cell-based, Staphylococcus aureus; details: for MIC: complete inhibition of observable growth, Mueller–Hinton broth
S. aureus (strain COL) = assay: Fluorescence microscopy of membrane, cell wall and DNA in MRSA; format: cell-based; details: 1× MIC, 30 min
[2] = tested on: S. aureus (strain USA300); assay: Transmission electron microscopy of treated MRSA; format: cell-based; details: 1× MIC
MRSA = MRSA MIC in the presence of serum; format: cell-based; details: Staphylococcus aureus
sheep erythrocytes = details: washed sheep erythrocytes; at 32 μg/mL; compared to Triton X-100 (100% lysis)
[3] = Single-dose in vivo pharmacokinetics; details: mice
[4] = Kinetic aqueous solubility by LC-MS/MS; details: pH 7.4
C. albicans = assay: Antimicrobial susceptibility panel: MIC against C. albicans; format: cell-based; details: Candida albicans, SC5314

| SMILES | MIC ([1]; Staphylococcus aureus) [µg/mL] | further results |
| --- | --- | --- |
| FC(F)(F)Oc1ccc2c(Nc3ccc(C(F)(F)F)cn3)cc(C(F)(F)F)nc2c1 [Compound 34] | 0.5 to 1 (≈ 1.13 to 2.27 µM) |  |
| Fc1ccc2nc(C(F)(F)F)cc(Nc3ccc(C(F)(F)F)cn3)c2c1F [Compound 77] | 16 to 32 (≈ 40.7 to 81.4 µM) |  |
| FC(F)(F)c1ccc2c(Nc3cc(Cl)ccn3)cc(C(F)(F)F)nc2c1 [Compound 48] |  | loss of activity (MIC) relative to 31 [1]: 8 fold |
| Oc1cc(C(F)(F)F)nc2c(C(F)(F)F)cccc12 [Compound 4] | 2 to 4 (≈ 7.11 to 14.2 µM) |  |
| FC(F)(F)c1ccc2c(Nc3cccc(Cl)c3)cc(C(F)(F)F)nc2c1 [Compound 16] | 0.125 to 0.25 (≈ 0.32 to 0.64 µM) |  |
| CCc1ccc2c(O)cc(C(F)(F)F)nc2c1 [Compound 8] | 320 to 640 (≈ 1330 to 2650 µM) |  |
| FC(F)(F)c1ccc2c(Nc3ccc(Cl)cc3)cc(C(F)(F)F)nc2c1 [Compound 17] | 0.125 to 0.25 (≈ 0.32 to 0.64 µM) |  |
| CSc1cccc(Nc2cc(C(F)(F)F)nc3cc(C(F)(F)F)ccc23)c1 [Compound 24] | 0.25 to 0.5 (≈ 0.621 to 1.24 µM) |  |
| FC(F)(F)Oc1ccc2c(Nc3ccc(Cl)c(Cl)c3)cc(C(F)(F)F)nc2c1 [Compound 32] | 0.5 to 1 (≈ 1.13 to 2.27 µM) |  |
| FC(F)(F)c1ccc2c(Nc3ccc(C(F)(F)F)nc3)cc(C(F)(F)F)nc2c1 [Compound 49] |  | MIC [1]: completely abolished activity |
| Fc1ccc2c(Nc3ccc(Cl)c(Cl)c3)cc(C(F)(F)F)nc2c1 [Compound 74] | 0.5 to 2 (≈ 1.33 to 5.33 µM) |  |
| O=c1cc(C(F)(F)F)[nH]c2cc(F)cc(Nc3ccc(C(F)(F)F)cn3)c12 [Compound 122] |  | FM 4–64 membrane staining by fluorescence microscopy (S. aureus (strain COL)): membrane defects |
| O=c1cc(C(F)(F)F)[nH]c2cc(C(F)(F)F)cc(N[C@H]3CC[C@H](C(F)(F)F)CC3)c12 [Compound 120] |  | cell morphology by TEM [2]: mesosome-like membrane inclusions; FM 4–64 membrane staining by fluorescence microscopy (S. aureus (strain COL)): membrane defects |
| O=c1cc(C(F)(F)F)[nH]c2cc(C(F)(F)F)cc(Nc3ccc(C(F)(F)F)cn3)c12 [Compound 111, 5-[(5-Trifluoromethylpyridin-2-yl)amino]-2,7-bis-(trifluoromethyl)quinolin-4(1H)-one] |  | cell morphology by TEM [2]: mesosome-like membrane inclusions; MIC (MRSA; read-out: MIC + 10% human serum): 4 to 8 µg/mL; MIC (MRSA; read-out: MIC + 10% mouse serum): 4 to 8 µg/mL; MIC (MRSA; read-out: MIC + 30% FBS): 4 to 8 µg/mL; hemolysis (sheep erythrocytes): devoid of hemolytic activity; time total plasma concentrations stay above the MIC (<0.0625 μg/mL) ([3]; following i.v. dosing at 0.5 mg/kg): ~9 h; time total plasma concentrations stay above the MIC (<0.0625 μg/mL) ([3]; following oral dosing at 10 mg/kg): ~9 h; solubility at 6 h [4]: 2.4 ± 0.4 ng/mL (≈ 0.00544 µM); MIC (C. albicans): 256 µg/mL (≈ 580 µM) |
| Fc1cc2nc(C(F)(F)F)cc(Nc3ccc(C(F)(F)F)cn3)c2cc1F [Compound 78] |  | hemolysis (sheep erythrocytes): hemolysis |
| O=c1cc(C(F)(F)F)[nH]c2cc(C(F)(F)F)ccc12 [Compound 2, 2,7-Bis-(trifluoromethyl)quinolin-4-ol] | 4 to 8 (≈ 14.2 to 28.5 µM) |  |
| FC(F)(F)c1ccc(Nc2cc(N3CCNCC3)nc3cc(C(F)(F)F)ccc23)nc1 [Compound 105, 2-(Piperazin-1-yl)-7-(trifluoromethyl)-4-{[5-(trifluoro-methyl)-pyridin-2-yl]amino}quinoline] | 0.5 to 1 (≈ 1.13 to 2.27 µM) | MIC [1]: 0.5 to 1 µg/mL |
| FC(F)(F)c1ccc(Nc2cc(N3CCOCC3)c3ccc(C(F)(F)F)cc3n2)nc1 [Compound 108] | 4 to 8 (≈ 9.04 to 18.1 µM) |  |
| FC(F)(F)c1ccc(Nc2cc(C(F)(F)F)nc3cc(C(F)(F)F)ccc23)nc1 [Compound 31, 2,7-Bis(trifluoromethyl)-4-[5-(trifluoromethyl)pyridin-2-yl-amino]quinoline] |  | cell morphology by TEM [2]: mesosome-like membrane inclusions; MIC (MRSA; read-out: MIC + 10% FBS): 4 to 8 µg/mL |
| FC(F)(F)Oc1cccc(Nc2cc(C(F)(F)F)nc3cc(OC(F)(F)F)ccc23)c1 [Compound 33] | 0.5 to 1 (≈ 1.1 to 2.19 µM) |  |
| Fc1cccc(Nc2cc(C(F)(F)F)nc3cc(C(F)(F)F)ccc23)c1 [Compound 18] | 4 to 16 (≈ 10.7 to 42.8 µM) |  |
| CSc1ccc2c(O)cc(C(F)(F)F)nc2c1 [Compound 10] | 320 to 640 (≈ 1230 to 2470 µM) |  |
| Fc1ccc(Nc2cc(C(F)(F)F)nc3cc(C(F)(F)F)ccc23)cc1F [Compound 21] | 0.125 to 0.25 (≈ 0.319 to 0.637 µM) |  |
| Fc1ccc2c(Nc3ccc(C(F)(F)F)cn3)cc(C(F)(F)F)nc2c1 [Compound 76] | 0.5 to 2 (≈ 1.33 to 5.33 µM) |  |
| COc1ccc2c(O)cc(C(F)(F)F)nc2c1 [Compound 9] | 320 to 640 (≈ 1320 to 2630 µM) |  |
| O=c1cc(C(F)(F)F)[nH]c2cc(C(F)(F)F)cc(Nc3ccc(F)cn3)c12 [Compound 114] | 0.125 to 2 (≈ 0.319 to 5.11 µM) |  |
| Oc1cc(C(F)(F)F)nc2cc(OC(F)(F)F)ccc12 [Compound 3] | 4 to 8 (≈ 13.5 to 26.9 µM) |  |
| FC(F)(F)c1ccc(Nc2cc(N3CCNCC3)c3ccc(C(F)(F)F)cc3n2)nc1 [Compound 106] | 4 to 8 (≈ 9.06 to 18.1 µM) |  |
| Fc1ccc(Nc2nc(C(F)(F)F)nc3nc(C(F)(F)F)ccc23)cc1F [Compound 94, N-(3,4-Difluorophenyl)-2,7-bis(trifluoromethyl)pyrido[2,3-d]-pyrimidin-4-amine] | ≥ 32 |  |
| FC(F)(F)c1ccc2c(Nc3nccs3)cc(C(F)(F)F)nc2c1 [Compound 55] | 1 to 2 (≈ 2.75 to 5.51 µM) |  |
